Measurements reported in ChEMBL document CHEMBL1136805, “Nitroaryl phosphoramides as novel prodrugs for E. coli nitroreductase activation in enzyme prodrug therapy” (J Med Chem, 2003).

How the values were obtained:
[1] = Ratio of the activity in absence to that of presence of Escherichia coli nitroreductase V79 (chinese hamster fibroblast) cell line; assay type: functional
SK-OV-3 [2] = assay: Inhibitory activity against SKOV3 (human ovarian carcinoma) cell line with Escherichia coli nitroreductase combination after 18 hours drug exposure; assay type: functional, cell-based; conditions: SK-OV-3, 18 h
[3] = Inhibitory activity against V79 (chinese hamster fibroblast) cell line without Escherichia coli nitroreductase combination after 72 hours drug exposure; assay type: functional, cell-based, Cricetulus griseus
SK-OV-3 [4] = assay: Inhibitory activity against SKOV3 (human ovarian carcinoma) cell line without Escherichia coli nitroreductase combination after 18 hours drug exposure; assay type: functional, cell-based
[5] = Ratio of the activity in absence to that of presence of Escherichia coli nitroreductase in SKOV3 (human ovarian carcinoma) cell line; assay type: functional
[6] = Inhibitory activity against V79 (chinese hamster fibroblast) cell line with Escherichia coli nitroreductase combination after 72 hours drug exposure; assay type: functional, cell-based, Cricetulus griseus
[7] = Kcat was determined; assay type: ADME
[8] = Inhibitory activity against V79 (chinese hamster fibroblast) cell line without Escherichia coli nitroreductase combination after 1 hour drug exposure; assay type: functional, cell-based, Cricetulus griseus
[9] = Inhibitory activity against V79 (chinese hamster fibroblast) cell line with Escherichia coli nitroreductase combination after 1 hour drug exposure; assay type: functional, cell-based, Cricetulus griseus
[10] = Ratio of the activity in absence to that of presence of the Escherichia coli nitroreductase in SKOV3 (human ovarian carcinoma) cell line infected at lower infection rate of 10 pfu/cell; assay type: functional
SK-OV-3 [11] = assay: Inhibitory activity against SKOV3 (human ovarian carcinoma) cell line infected at lower infection rate of 10 pfu/cell with Escherichia coli nitroreductase combination after 18 hours drug exposure; assay type: functional, cell-based; conditions: SK-OV-3, 18 h
[12] = Ratio of Kcat to that of Km was determined; assay type: ADME

| SMILES | Ratio [1] | IC50 (SK-OV-3 [2]) [µM] | IC50 [3] [µM] | IC50 (SK-OV-3 [4]; Homo sapiens, SK-OV-3, 18 h) [µM] | Ratio [5] | IC50 [6] [µM] | k cat [7] [s⁻¹] | IC50 [8] [µM] | IC50 [9] [µM] | Ratio [10] | IC50 (SK-OV-3 [11]) [µM] | k cat/Km [12] [M⁻¹ s⁻¹] | IC50 (SK-OV-3 [4]; sk-ov-3) [µM] | 1/2Kcat/Km [12] [M⁻¹ s⁻¹] |
| --- | --- | --- | --- | --- | --- | --- | --- | --- | --- | --- | --- | --- | --- | --- |
| O=[N+]([O-])c1ccc2c(c1)NP(=O)(N(CCCl)CCCl)OC2 (stereo not drawn) | >33 | 55 | > 100 | 550 | 10 | 3 |  |  |  |  |  |  |  |  |
| NP(=O)(OCc1ccc([N+](=O)[O-])cc1)N(CCCl)CCCl (stereo not drawn) |  | 1.2 | 67 | > 10000 | >833 | 0.0004 | 14 | > 100 | 0.01 | >161 | 6.2 | 71949 |  |  |
| O=[N+]([O-])c1cccc([C@H]2CCNP(=O)(N(CCCl)CCCl)O2)c1 (stereo partly drawn) |  | 4.7 | 832 | 680 | 145 | 0.029 |  | > 100 | 0.34 |  |  |  |  |  |
| NC(=O)c1cc(N2CC2)c([N+](=O)[O-])cc1[N+](=O)[O-] [TRETAZICAR] |  | 4.7 | 254 | > 1000 | >213 | 0.036 | 6.6 | > 100 | 0.31 | 12 | 52 |  | 625 | 3746 |
| O=[N+]([O-])c1cccc([C@@H]2CCNP(=O)(N(CCCl)CCCl)O2)c1 (stereo partly drawn) |  | 5 | 608 | > 1000 | >200 | 0.027 |  | > 100 | 0.17 |  |  |  |  |  |
